Measured values: article PMC8229550 (Pharmaceuticals, 2021)
Where two headings read alike, the source gives them in different places.

Legend:
MTT cytotoxicity assay = format: cell-based; conditions: normal human adult dermal fibroblasts (HDFa)
Method: To determine the half-maximal cell toxicity concentration (CC50) to assess the compound toxicity, we prepared stock solutions of the test compounds in 10% DMSO with ddH2O and further diluted with DMEM to the working solutions. The cytotoxic effect of the tested compounds was evaluated in normal human adult dermal fibroblasts (HDFa) (Sigma-Aldrich, Dorset, UK) using the previously reported 3-(4,5-dimethylthiazol-2-yl)-2,5-diphenyltetrazolium bromide (MTT) method with slight adjustments. Briefly, 100 µL cells/well at a density of 3 × 10^5 cells/mL were placed in 96-well plates and then incubated in 5% CO2 for 24 h at 37 °C. After 24 h, different concentrations of the test compound(s) were added to the cells in triplicate. After another 24 h, the supernatant was removed, and cells were washed with sterile 1× PBS three times. Then, 20 µL of 5 mg/mL MTT stock solution was added to each well, and the plate was incubated at 37 °C for 4 h. The produced formazan crystals were dissolved in 200 µL of acidified isopropanol (0.04 M HCl in absolute isopropanol). After that, we measured the absorbance of formazan solutions at λmax 540 nm using a BioTek Lx800 microplate reader (BioTek Instrument Ltd., Bedfordshire, UK). […]

[1] = biological target: SARS-CoV-2 main protease (M^Pro) (Severe acute respiratory syndrome coronavirus 2, UniProt P0DTD1); assay: biochemical

O=C(O)c1cc(=O)c2c(OCC(O)COc3cccc4oc(C(=O)O)cc(=O)c34)cccc2o1 [Cromoglicic acid, cromoglicic acid]
CC50 at 24 h (MTT cytotoxicity assay): > 100 µM | IC50 [1]: 1.1 µM | Ki [1]: 0.68 µM | Potency relative to α-rubromycin (times more potent) ([1]; M^Pro inhibition, versus α-rubromycin): 4.5 times

COC(=O)c1cc2cc(CCc3cc4c(o3)C(=O)c3c(O)c(OC)cc(OC)c3C4=O)c(O)c(O)c2c(=O)o1 [α-Rubromycin, α-rubromycin]
CC50 at 24 h (MTT cytotoxicity assay): 16.7 µM | Ki ([1]; 0–250 µM substrate, 0–50 µM inhibitor, read-out: M^Pro inhibition constant Ki): 3.22 µM | IC50 ([1]; fluorescence, 40 µM substrate, 4 h at 20 °C, read-out: M^Pro inhibitory activity IC50): 5.4 µM
